This note sets out measurements from ChEMBL document CHEMBL1201862, “PubChem BioAssay data set” (2004).

The structures appear in SMILES notation.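 96-well plates; 48 h exposure; 5 concentrations. Endpoints by linear interpolation between flanking doses. Not reached: highest tested concentration assigned. Here, GI50 denotes the concentration required for 50% inhibition of growth.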 Calls of active or inactive are those of the source. No stated cut-off is given here; in the data, active = GI50 up to about 1.1 µM and inactive = higher.

Test systems include ACHN; EKVX; HL-60; HOP-92; IGROV-1; K562; LOX IMVI; M14; NCI-H226; NCI-H522; OVCAR-3; OVCAR-5; RPMI-8226; SF-295; SK-OV-3; SNB-19; UACC-257; UACC-62; UO-31; OVCAR-4.
What all share (assay): NCI anticancer screen, dose series, 48 h

Take `CNC1C(O)C(OC2C(N)CC(N)C(OC3OC(CN)=CCC3N)C2O)OCC1(C)O` (centres undefined): the GI50 in the assay with ACHN, in the assay on EKVX, with HL-60, with HOP-92, in the assay with IGROV-1 and with K562 was > 100 µM (inactive) throughout. In addition, the GI50 with LOX IMVI, with M14, with NCI-H226, in the assay with NCI-H522, with OVCAR-3 and with OVCAR-5 was > 100 µM (inactive) in each case. The GI50 with RPMI-8226, in the assay with SF-295, with SK-OV-3, with SNB-19, in the assay with UACC-257 and in the assay on UACC-62 was > 100 µM (inactive) throughout. In addition, in the assay with UO-31, the GI50 is > 100 µM (inactive).
On to `CCOC(=O)/C(=C/c1ccc(C#N)cc1)N(CC)CC`, for which the GI50 in the assay on ACHN, in the assay with EKVX, with HL-60, in the assay with HOP-92, in the assay on IGROV-1 and in the assay with K562 was > 100 µM (inactive) throughout. For the same compound, the GI50 in the assay on LOX IMVI, with M14, in the assay with NCI-H226, in the assay with NCI-H522, in the assay with OVCAR-4 and in the assay on OVCAR-5 was > 100 µM (inactive) each time. The GI50 in the assay on RPMI-8226 was > 100 µM (inactive); in the assay with SF-295, 1.88 µM (inactive); in the assay with SK-OV-3 it was > 100 µM (inactive); in the assay with UACC-257, > 100 µM (inactive); in the assay on UACC-62 it was > 100 µM (inactive); in the assay on UO-31, > 100 µM (inactive).
Turning to `O=C(c1ccccc1)C1C(C(=O)c2ccccc2)C(c2ccccc2)N(c2ccccc2)C1c1ccccc1` (centres undefined), the GI50 in the assay on ACHN is > 100 µM (inactive); in the assay with EKVX, > 100 µM (inactive); in the assay with HL-60, 5.48 µM (inactive); in the assay with HOP-92, > 100 µM (inactive); in the assay on IGROV-1 it was > 100 µM (inactive); in the assay with K562, 46.7 µM (inactive). The GI50 in the assay on LOX IMVI, in the assay on M14, in the assay on NCI-H226, with NCI-H522, with OVCAR-3 and in the assay on OVCAR-5 was > 100 µM (inactive) throughout. For the same compound, the GI50 in the assay with RPMI-8226 is 21.2 µM (inactive); with SF-295, > 100 µM (inactive); with SNB-19, > 100 µM (inactive); in the assay on UACC-257 it was > 100 µM (inactive); in the assay on UACC-62, > 100 µM (inactive); with UO-31, > 100 µM (inactive).
`COC1=CC(=O)c2c(O)c3c(c(O)c2C1=O)OC1(Oc2c(cc4cc(C)oc(=O)c4c2O)CC1O)C3O` (centres undefined): the GI50 in the assay on ACHN is 41.3 µM (inactive); in the assay with EKVX, 24.9 µM (inactive); in the assay on HL-60, 33.3 µM (inactive); with HOP-92 it was > 100 µM (inactive); in the assay on IGROV-1 it was 25.8 µM (inactive); in the assay on K562 it was 42.8 µM (inactive). In addition, the GI50 in the assay with LOX IMVI was 30.1 µM (inactive); in the assay on M14, 42.5 µM (inactive); with NCI-H522, 25.1 µM (inactive); in the assay with OVCAR-3, 67.1 µM (inactive); in the assay on OVCAR-4, 27.8 µM (inactive); with OVCAR-5, 32.7 µM (inactive). For the same compound, the GI50 in the assay on RPMI-8226 was 29.4 µM (inactive); in the assay with SF-295, 41.6 µM (inactive); with SK-OV-3 it was 77.1 µM (inactive); in the assay with SNB-19 it was 20.9 µM (inactive); in the assay on UACC-257, 40.6 µM (inactive); in the assay with UACC-62, 32.7 µM (inactive). Also, the GI50 in the assay with UO-31 was 55.7 µM (inactive).
Consider `Cc1cc(Cl)ccc1NC(=O)C(=O)C(C(=O)c1ccccc1)C1OC(=O)c2ccccc21` (centres undefined), for which the GI50 in the assay with ACHN, with EKVX, with HL-60, in the assay with HOP-92, with IGROV-1 and with K562 was > 100 µM (inactive) throughout. Further, the GI50 in the assay with LOX IMVI, in the assay on M14, with NCI-H226, in the assay on NCI-H522, in the assay on OVCAR-4 and in the assay with OVCAR-5 was > 100 µM (inactive) in each case. Also, the GI50 in the assay with RPMI-8226, with SF-295, in the assay on SK-OV-3, with SNB-19, in the assay with UACC-257 and in the assay on UACC-62 was > 100 µM (inactive) each time. For the same compound, the GI50 in the assay on UO-31 was > 100 µM (inactive).
For `C=C1C(=O)OC2C1C(OC(=O)/C(C)=C\C)CC1(CO1)C1C(O)C=C(C)C21O` (centres undefined), the GI50 with ACHN is 3.16 µM (inactive); in the assay with EKVX, 12.8 µM (inactive); in the assay with HL-60, 3.04 µM (inactive); in the assay on HOP-92 it was 10.7 µM (inactive); in the assay with IGROV-1, 14.5 µM (inactive); in the assay with K562, 4.72 µM (inactive). In addition, the GI50 in the assay with LOX IMVI was 14.4 µM (inactive); with M14 it was 2.63 µM (inactive); in the assay with NCI-H522, 0.942 µM (active); in the assay on OVCAR-3 it was 3.77 µM (inactive); in the assay on OVCAR-4, 7.78 µM (inactive); with OVCAR-5, 19.7 µM (inactive). Besides, the GI50 in the assay on RPMI-8226 was 4.56 µM (inactive); in the assay on SF-295 it was 20.8 µM (inactive); in the assay on SK-OV-3 it was 16.7 µM (inactive); in the assay with SNB-19, 20.7 µM (inactive); in the assay on UACC-257, 9.73 µM (inactive); in the assay with UACC-62, 1.74 µM (inactive). Besides, the GI50 in the assay with UO-31 is 10.3 µM (inactive).
Regarding `Cc1sc2nc(N(C)C)oc(=O)c2c1C`, the GI50 is 79.8 µM (inactive) in the assay with ACHN; 59.6 µM (inactive) in the assay with EKVX; 37.9 µM (inactive) in the assay on HL-60; > 100 µM (inactive) in the assay on HOP-92; > 100 µM (inactive) with IGROV-1; 63.4 µM (inactive) in the assay with K562. The GI50 in the assay on LOX IMVI was > 100 µM (inactive); in the assay on M14 it was > 100 µM (inactive); in the assay with NCI-H226, > 100 µM (inactive); in the assay with NCI-H522 it was 30.8 µM (inactive); with OVCAR-4 it was > 100 µM (inactive); with OVCAR-5, > 100 µM (inactive). For the same compound, the GI50 was 41.3 µM (inactive) in the assay with RPMI-8226; 61.2 µM (inactive) in the assay on SF-295; > 100 µM (inactive) in the assay on SK-OV-3; > 100 µM (inactive) in the assay with SNB-19; > 100 µM (inactive) with UACC-257; > 100 µM (inactive) with UACC-62. In addition, in the assay on UO-31, the GI50 is 21.6 µM (inactive).
As for `C=CCn1c(=O)c(-c2ccccc2)c(O)c2ccccc21`, the GI50 in the assay on ACHN, with EKVX, in the assay on HL-60, in the assay on HOP-92, in the assay on IGROV-1 and in the assay on K562 was > 100 µM (inactive) in each case. The GI50 in the assay on LOX IMVI, in the assay with NCI-H226, in the assay on NCI-H522, in the assay on OVCAR-3, with OVCAR-4 and in the assay on OVCAR-5 was > 100 µM (inactive) throughout. Besides, the GI50 in the assay on RPMI-8226, with SF-295, with SNB-19, with UACC-257 and with UO-31 was > 100 µM (inactive) throughout.
Take `CSc1nnc(CCC(=O)Nc2c(C)cccc2C)o1`: the GI50 in the assay on EKVX, with HL-60, in the assay with HOP-92, in the assay on IGROV-1, in the assay on K562 and with LOX IMVI was > 100 µM (inactive) throughout. The GI50 in the assay with M14, in the assay with NCI-H226, in the assay with NCI-H522, with OVCAR-3, in the assay on OVCAR-4 and with OVCAR-5 was > 100 µM (inactive) each time. The GI50 in the assay with RPMI-8226, in the assay on SF-295, in the assay with SK-OV-3, in the assay with SNB-19, in the assay on UACC-257 and in the assay on UACC-62 was > 100 µM (inactive) in each case. Besides, the GI50 with UO-31 is > 100 µM (inactive).
For the compound `COc1ccc2c(c1)OCC1Cc3ccccc3OC21` (centres undefined), the GI50 was > 100 µM (inactive) in the assay on ACHN; 49.9 µM (inactive) with EKVX; > 100 µM (inactive) in the assay with HL-60; > 100 µM (inactive) in the assay with HOP-92; > 100 µM (inactive) in the assay with IGROV-1; > 100 µM (inactive) in the assay with K562. Further, the GI50 was > 100 µM (inactive) in the assay with LOX IMVI; 69.5 µM (inactive) in the assay on M14; > 100 µM (inactive) with NCI-H226; > 100 µM (inactive) in the assay on NCI-H522; > 100 µM (inactive) in the assay with OVCAR-3; > 100 µM (inactive) with OVCAR-5. Besides, the GI50 in the assay on RPMI-8226 was 75.7 µM (inactive); in the assay with SF-295, > 100 µM (inactive); in the assay on SK-OV-3, > 100 µM (inactive); in the assay with UACC-257, 52 µM (inactive); with UACC-62, > 100 µM (inactive); in the assay on UO-31, > 100 µM (inactive).
Consider `O=C(O)C1CCCCC1c1c2ccc(=O)cc-2oc2cc(O)ccc12` (centres undefined), for which the GI50 in the assay with ACHN is 31.8 µM (inactive); with EKVX, 33.5 µM (inactive); with HL-60, 54.6 µM (inactive); in the assay with HOP-92, 12 µM (inactive); in the assay with IGROV-1 it was 12.9 µM (inactive); in the assay with K562, 14.1 µM (inactive). Further, the GI50 in the assay with LOX IMVI is 28.1 µM (inactive); in the assay on M14, 26.1 µM (inactive); with NCI-H522 it was 17.7 µM (inactive); in the assay with OVCAR-3 it was 24.4 µM (inactive); with OVCAR-4 it was 23.1 µM (inactive); with OVCAR-5, 29.4 µM (inactive). The GI50 was 23 µM (inactive) in the assay with RPMI-8226; 31.7 µM (inactive) in the assay with SF-295; 32.1 µM (inactive) in the assay on SK-OV-3; 48.6 µM (inactive) in the assay on SNB-19; 65.3 µM (inactive) in the assay with UACC-257; 25.9 µM (inactive) in the assay with UACC-62. Besides, the GI50 with UO-31 is 61 µM (inactive).
